According to paper PMC3394710, “Insight into Temperature Dependence of GTPase Activity in Human Guanylate Binding Protein-1” (PLoS ONE, 2012):
Positions count from the first letter of the chain named.

Tests used:
Experiment in all cases: thermal denaturation, tryptophan fluorescence
[1] = target: T1, human guanylate binding protein-1 (hGBP1, wild type whGBP1) (Homo sapiens, UniProt P32455); conditions: 0.5 µM protein, 20 mM Tris-HCl pH 7.5, 100 mM KCl, 5 mM MgCl2, Tm of free protein in the 2nd table, row 6
T1 construct: gene GBP1; purified as in earlier work
T1 sequence (P32455 1-592): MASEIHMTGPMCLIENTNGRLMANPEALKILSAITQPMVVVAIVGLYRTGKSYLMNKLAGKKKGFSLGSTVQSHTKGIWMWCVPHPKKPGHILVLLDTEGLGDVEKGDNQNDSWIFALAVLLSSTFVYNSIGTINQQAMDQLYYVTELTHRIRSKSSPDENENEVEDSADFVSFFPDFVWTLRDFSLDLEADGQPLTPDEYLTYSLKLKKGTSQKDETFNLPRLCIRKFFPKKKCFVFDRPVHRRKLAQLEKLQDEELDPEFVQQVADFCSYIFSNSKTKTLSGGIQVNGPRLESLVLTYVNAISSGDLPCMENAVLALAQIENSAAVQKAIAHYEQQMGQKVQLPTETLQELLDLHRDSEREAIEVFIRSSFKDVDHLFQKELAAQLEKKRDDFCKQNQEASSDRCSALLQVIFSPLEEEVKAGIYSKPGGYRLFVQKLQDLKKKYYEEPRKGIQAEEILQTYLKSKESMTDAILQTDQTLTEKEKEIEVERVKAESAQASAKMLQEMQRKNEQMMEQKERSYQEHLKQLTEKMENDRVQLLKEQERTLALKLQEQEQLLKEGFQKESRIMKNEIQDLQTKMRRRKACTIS
Text: thermal denaturation, tryptophan fluorescence on human guanylate binding protein-1 (hGBP1, wild type whGBP1)

[2] = target: T2, human guanylate binding protein-1 (hGBP1, wild type whGBP1) (Homo sapiens, UniProt P32455, S157A); conditions: 37 °C; 5 mM MgCl2, 100 mM KCl, pH 7.5; ΔCp assumed as in wild type
T2 construct: gene GBP1; purified as in earlier work
T2 sequence (P32455 1-592 S157A): T1 sequence (P32455 1-592) with S157A

[3] = target: T3, human guanylate binding protein-1 (hGBP1, wild type whGBP1) (Homo sapiens, UniProt P32455, E313A); conditions: 37 °C; 5 mM MgCl2, 100 mM KCl, pH 7.5; ΔCp assumed as in wild type
T3 construct: gene GBP1; purified as in earlier work
T3 sequence (P32455 1-592 E313A): T1 sequence (P32455 1-592) with E313A

| SMILES | Heat-induced unfolding / T m / (K) ([1]; 500 µM GDP) | difference in ΔG D between analogue free and bound protein [2] [kcal/mol] | Heat-induced unfolding / T m / (K) ([1]; 100 µM GppNHp) | difference in ΔG D between analogue free and bound protein [3] [kcal/mol] |
| --- | --- | --- | --- | --- |
| Nc1nc2c(ncn2[C@@H]2O[C@H](COP(=O)(O)OP(=O)(O)O)[C@@H](O)[C@H]2O)c(=O)[nH]1 [GDP] | 319.9 ± 0.4 | – | – | – |
| Nc1nc2c(ncn2[C@@H]2O[C@H](COP(=O)(O)OP(=O)(O)NP(=O)(O)O)[C@@H](O)[C@H]2O)c(=O)[nH]1 [GppNHp] | – | 0.9 | 325.2 ± 0.2 | 2.4 |
